# Assay results: PubChem BioAssay AID2060898 (Molecular Pharmacology Branch, DTP, NCI, 2025)
# Test system: 616215-338-R-J1-PDC complex spheroid viability
# Assay: Anticancer human tumor 616215-338-R-J1-PDC patient-derived colon adenocarcinoma cell line growth inhibition [RAS]
# Details: for IC50: curve of first compound; for viability, T/C: stronger effect = lower value
# From the text: RAS pathway inhibitors in Combinations in Complex Spheroids
# A high-throughput screen of multi-cell type tumor spheroids was designed to identify active combinations of RAS pathway inhibitors and targeted small molecules. Complex spheroids include a stromal component modeled by human endothelial cells (HUVEC) and fibroblasts modeled by human mesenchymal stem cells (MSCs). The concentration ranges selected for each drug and investigational agent were based upon clinically achievable concentrations if the clinical Cmax of the agent was known.
# Compounds. The drugs and investigational agents: abemaciclib (NSC768073), cobimetinib (NSC768068), divarasib (GDC6063, NSC841802), docetaxel (NSC628503), GDC-1971 (RLY-1971, NSC841576), gemcitabine (NSC613327), inavolisib (NSC800729), ipatasertib (NSC767898), KB-0742 (NSC834161), MRTX-1133 (NSC836407), osimertinib (NSC779217), RMC-4630 (NSC839698), RMC-6236 (NSC851965), RMC-6291 (NSC852671), Ro-3306 (NSC812927), sapanisertib (NSC764658), SN-38 (NSC673596), staurosporine (NSC755774), SY5609 (NSC837396), and tovorafenib (DAY101, NSC766906), were obtained from the National Cancer Institute (NCI) Developmental Therapeutics Program Chemical Repository. The FDA-approved anticancer drug set is available from the NCI Developmental Therapeutics Program. […] The stock solutions were prepared in dimethyl sulfoxide (DMSO, Sigma-Aldrich, St. Louis, MO, cat. D2650) at 800-fold the tested concentration and stored at -70 degrees C prior to their use. All drugs and investigational agents were tested over a range starting from a high concentration at or near the clinical Cmax and decreasing in half-log increments. If the clinical Cmax for an agent had not been determined, the highest concentration tested was 10 microM.
# Cell Culture. All cells were maintained in an incubator at 37 degrees C and 5% CO2 with 95% humidity. The PDC lines were cultured according to standard operating procedures established by the NCI PDMR. All PDCs were thawed and cultured in Matrigel-coated flasks prepared with a working solution of 1X Ham's F-12 nutrient mix, without supplementation (Invitrogen, Waltham, MA, cat. 11765054), 100 U/mL penicillin-streptomycin (Invitrogen, cat. 15140122), and 2.5% Matrigel (Corning Inc., Corning, NY, cat. 354248) for the first three passages. The 362531-283-R-J2-PDC and 782815-120-R-J1-PDC lines were cultured in 6C/Colon 1B media, which includes advanced DMEM/F-12 (Thermo Fisher Scientific, cat. 12634028), 10 mM HEPES (Thermo Fisher Scientific, cat. 15630080), 1X GlutaMAX supplement (Thermo Fisher Scientific, cat. 35050061), 0.1 mg/mL primocin (InvivoGen, San Diego, CA, cat. ant-pm-2), 10% defined fetal bovine serum, heat inactivated (HyClone Laboratories Inc., Logan, UT, cat. SH30070.03HI), 50% L-WRN conditioned media (ATCC, cat. CRL-3276), 1.25 mM N-Acetyl-L-cysteine (Sigma-Aldrich, cat. A9165), 10 mM nicotinamide (Sigma-Aldrich, cat. N0636), 1X B-27 supplement (Thermo Fisher Scientific, cat. 17504044), 1X N-2 supplement (Thermo Fisher Scientific, cat. 17502048), 50 ng/mL human EGF (Thermo Fisher Scientific, cat. PHG0311), and 10 microM Y-27632 dihydrochloride (Tocris Bioscience, cat. 1254). The K12877-001-R-J1-PDC line was cultured in 6I media, which includes all 6C/Colon 1B media plus 10 ng/mL human FGF-10 (PeproTech, cat. 100-26), 1 ng/mL human FGF-2 (PeproTech, cat. 100-18B), 1 µM prostaglandin E2 (Tocris Bioscience, cat. 2296), […] hydrocortisone (Sigma-Aldrich, cat. H4001), and […] bovine insulin (Sigma-Aldrich, cat. I6634). The K86415-001-R-J1-PDC line was cultured in 6D media, which includes all 6C/Colon 1B media components minus the L-WRN conditioned media. The 485176-168-R4-J1-PDC was cultured in PANC media, which includes all 6C/Colon 1B media plus 100 ng/mL human FGF-10 (PeproTech, cat. 100-26), 500 nM SB-431542 (Selleckchem, cat. S1067), and 10 nM gastrin (Tocris Bioscience, cat. 3006). […]
# [1] = second compound 0.0316 µM, first compound 0.0316 µM
# [2] = second compound 0.0316 µM, first compound 0.1 µM
# [3] = second compound 0.0316 µM, first compound 0.316 µM
# [4] = second compound 0.0316 µM, first compound 1 µM
# [5] = second compound 0.0316 µM, first compound 3.16 µM
# [6] = second compound 0.0316 µM, first compound 10 µM
# [7] = second compound 0.1 µM, first compound 0.0316 µM
# [8] = second compound 0.1 µM, first compound 0.1 µM
# [9] = second compound 0.1 µM, first compound 0.316 µM
# [10] = second compound 0.1 µM, first compound 1 µM
# [11] = second compound 0.1 µM, first compound 3.16 µM
# [12] = second compound 0.1 µM, first compound 10 µM
# [13] = second compound 0.316 µM, first compound 0.0316 µM
# [14] = second compound 0.316 µM, first compound 0.1 µM
# [15] = second compound 0.316 µM, first compound 0.316 µM
# [16] = second compound 0.316 µM, first compound 1 µM
# [17] = second compound 0.316 µM, first compound 3.16 µM
# [18] = second compound 0.316 µM, first compound 10 µM
# [19] = second compound 1 µM, first compound 0.0316 µM
# [20] = second compound 1 µM, first compound 0.1 µM
# [21] = second compound 1 µM, first compound 0.316 µM
# [22] = second compound 1 µM, first compound 1 µM
# [23] = second compound 1 µM, first compound 3.16 µM
# [24] = second compound 1 µM, first compound 10 µM
# [25] = second compound 3.16 µM, first compound 0.0316 µM
# [26] = second compound 3.16 µM, first compound 0.1 µM
# [27] = second compound 3.16 µM, first compound 0.316 µM
# [28] = second compound 3.16 µM, first compound 1 µM
# [29] = second compound 3.16 µM, first compound 3.16 µM
# [30] = second compound 3.16 µM, first compound 10 µM
# [31] = second compound 10 µM, first compound 0.0316 µM
# [32] = second compound 10 µM, first compound 0.1 µM
# [33] = second compound 10 µM, first compound 0.316 µM
# [34] = second compound 10 µM, first compound 1 µM
# [35] = second compound 10 µM, first compound 3.16 µM
# [36] = second compound 10 µM, first compound 10 µM
# 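Also: spheroids exposed to agents for seven days before viability readout.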
# 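For viability, T/C in this document: 100% = DMSO vehicle control viability.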
smiles,measurement,setting,value
CC(C)NCC(C(=O)N1CCN(c2ncnc3c2C(C)CC3O)CC1)c1ccc(Cl)cc1 (centres undefined) + C#Cc1c(F)ccc2cc(O)cc(-c3ncc4c(N5CC6CCC(C5)N6)nc(OCC56CCCN5CC(F)C6)nc4c3F)c12,IC50,second compound 0.0316 µM,8.8 µM
same,IC50,second compound 0.1 µM,8.47 µM
same,IC50,second compound 0.316 µM,7.91 µM
same,IC50,second compound 1 µM,7.71 µM
same,IC50,second compound 3.16 µM,4.6 µM
same,IC50,second compound 10 µM,2.13 µM
same,"viability, T/C",[1],107%
same,"viability, T/C",[2],103%
same,"viability, T/C",[3],108%
same,"viability, T/C",[4],111%
same,"viability, T/C",[5],99.5%
same,"viability, T/C",[6],43.8%
same,"viability, T/C",[7],104%
same,"viability, T/C",[8],109%
same,"viability, T/C",[9],105%
same,"viability, T/C",[10],111%
same,"viability, T/C",[11],91.8%
same,"viability, T/C",[12],43%
same,"viability, T/C",[13],113%
same,"viability, T/C",[14],110%
same,"viability, T/C",[15],110%
same,"viability, T/C",[16],108%
same,"viability, T/C",[17],81.5%
same,"viability, T/C",[18],42%
same,"viability, T/C",[19],114%
same,"viability, T/C",[20],121%
same,"viability, T/C",[21],115%
same,"viability, T/C",[22],103%
same,"viability, T/C",[23],75.7%
same,"viability, T/C",[24],42.5%
same,"viability, T/C",[25],107%
same,"viability, T/C",[26],101%
same,"viability, T/C",[27],94.5%
same,"viability, T/C",[28],97.2%
same,"viability, T/C",[29],60.3%
same,"viability, T/C",[30],28.4%
same,"viability, T/C",[31],81.2%
same,"viability, T/C",[32],82.2%
same,"viability, T/C",[33],89.2%
same,"viability, T/C",[34],74.1%
same,"viability, T/C",[35],37.2%
same,"viability, T/C",[36],18.5%
CC(Nc1ccc2c(c1)OCCn1cc(N3C(=O)OCC3C(F)F)nc1-2)C(N)=O (centres undefined) + C#Cc1c(F)ccc2cc(O)cc(-c3ncc4c(N5CC6CCC(C5)N6)nc(OCC56CCCN5CC(F)C6)nc4c3F)c12,IC50,second compound 0.0316 µM,> 10 µM
same,IC50,second compound 0.1 µM,> 10 µM
same,IC50,second compound 0.316 µM,> 10 µM
same,IC50,second compound 1 µM,> 10 µM
same,IC50,second compound 3.16 µM,> 10 µM
same,IC50,second compound 10 µM,< 0.0316 µM
same,"viability, T/C",[1],98.9%
same,"viability, T/C",[2],132%
same,"viability, T/C",[3],104%
same,"viability, T/C",[4],104%
same,"viability, T/C",[5],101%
same,"viability, T/C",[6],73%
same,"viability, T/C",[7],104%
same,"viability, T/C",[8],115%
same,"viability, T/C",[9],113%
same,"viability, T/C",[10],106%
same,"viability, T/C",[11],98.5%
same,"viability, T/C",[12],78.2%
same,"viability, T/C",[13],102%
same,"viability, T/C",[14],122%
same,"viability, T/C",[15],111%
same,"viability, T/C",[16],108%
same,"viability, T/C",[17],101%
same,"viability, T/C",[18],76.8%
same,"viability, T/C",[19],116%
same,"viability, T/C",[20],115%
same,"viability, T/C",[21],106%
same,"viability, T/C",[22],100%
same,"viability, T/C",[23],98.1%
same,"viability, T/C",[24],73.8%
same,"viability, T/C",[25],73.4%
same,"viability, T/C",[26],84.4%
same,"viability, T/C",[27],81.3%
same,"viability, T/C",[28],85.8%
same,"viability, T/C",[29],91.5%
same,"viability, T/C",[30],65.6%
same,"viability, T/C",[31],50.7%
same,"viability, T/C",[32],38.7%
same,"viability, T/C",[33],34%
same,"viability, T/C",[34],43.4%
same,"viability, T/C",[35],31.6%
same,"viability, T/C",[36],34.3%
